Laboratory results from patent publication US20170095497A1, “TRANSIENT INHIBITION OF ADENOSINE KINASE AS AN ANTI-EPILE[…]” (Legacy Emanuel Hospital & Health Center, priority 2015, published 2017).

Tests used:
[1] = tested on: kainic acid (KA) triggered epileptogenesis in mice; assay: EEG seizure recording six weeks after intrahippocampal kainic acid-triggered epileptogenesis, transient ITU treatment; assay type: in vivo, mouse
Procedure: (§1) Kainic acid (KA) was administered intrahippocampally (IH) at day 0 to produce status epilepticus. […] At six weeks and nine weeks, the subjects were analyzed by EEG alone or EEG and histology, respectively.
The number of subjects from which data were collected is indicated in parentheses above each condition.

[2] = tested on: DNA methyltransferase (DNMT); details: mice, one hour after administration
Text: FIGS. 3 and 4 show a pair of bar graphs reporting the level of DNMT activity measured one hour after administration to mice of vehicle alone or with the indicated inhibitor.

[3] = tested on: kainic acid (KA) triggered epileptogenesis in mice; assay: Histological analysis of hippocampal tissue sections at nine weeks after KA status epilepticus; assay type: in vivo, mouse
Procedure: as §1
Administration of saline only is a control (top row of images). […] The tissue sections shown in the first column of images were Nissl stained, and those in the second, third, and fourth columns were stained respectively with antibodies to glial fibrillary acidic protein (GFAP), ADK, and 5-methylcytosine (5mC).
FIGS. 12-14 are a series of graphs plotting data from the histological analysis represented by FIG. 11. […] FIG. 13 plots the level of GFAP, and FIG. 14 the level of ADK.

[4] = 1.6 mg/kg ip twice daily, day 3 to day 8 after KA, EEG at six weeks
[5] = hippocampal sections, nine weeks after KA, transient ITU ip

Nc1ncnc2c1c(I)cn2[C@@H]1O[C@H](CO)[C@@H](O)[C@H]1O [ITU, 5-iodotubercidin]
seizure frequency [1, 4]: dramatically reduced
time spent in seizure [1, 4]: dramatically reduced
frequency of seizures and time spent in seizures ([1]; 3.1 mg/kg ip once daily, day 3 to day 8 after KA, EEG at six weeks): substantially ineffective
frequency of seizures and time spent in seizures, partial repeat experiment ([1]; ITU twice daily, EEG at six weeks, repeat of FIGS. 6 and 7): confirm the long-term, anti-epileptogenic effect
half-life ([1]; mice, inferred from once-daily versus twice-daily efficacy): much less than one day
inhibition of DNMT compared with AZA ([2]; ITU 3.1 mg/kg): as effective as AZA
DNMT inhibition compared with ADOX and IODO [2]: most effective
dentate granule layer dispersion produced by KA ([3]; Nissl stained sections, nine weeks, compared to controls): significantly less
level of 5-methylcytosine [3, 5]: reduced
level of ADK [3, 5]: reduced
epilepsy-associated histopathology (Nissl) ([3]; nine weeks after KA, transient ITU ip): prevented later development of epilepsy-associated histopathology
